According to US20120189563A1, “ORAL COMPOSITION FOR ALLEVIATING ULTRAVIOLET IRRADIATION-INDUCED DAMAGE” (Shiseido Company, Ltd., priority 2009, published 2012):
Where two headings read alike, the source gives them in different places.

Experiments:
[1] = test system: human neonatal dermal fibroblast (Cryo NHDF-Neo); experiment: cells; details: for effect of pre-irradiation addition on viable cells and cell death (in words): pre-irradiation addition 0.001 to 100 μM, UV-A 9 J/cm^2
Procedure: The ultraviolet irradiation after switching into a medium added with 0.1 μM (micro-molar) D-proline was employed as a positive control, while the ultraviolet irradiation to the medium still being free of such an added amino acid was employed as a negative control.
(degrees Celsius) for 40 hours.

[2] = test system: Male hairless mice (Hos: HR-1); details: Example 2, 10 mM in drinking water
Source text: (§1) Male hairless mice (Hos: HR-1, six-week old, Hoshino Laboratory Animals, Inc.) were employed and subjected to a partly modified method by Schwarz et al. (Haratake A. et al. J. Invest. Dermatol. 108:769-775, 1997.) in accordance with the repetitive UV-B irradiation method (Naganuma M. et al. J. Dermatol. Sci. 25:29-35, 2001. Schwartz E. J. Invest. Dermatol. 91:158-161, 1988.) whereby forming wrinkles. Thus, the dorsal region was irradiated with UV-B (light source: Toshiba FL-20 SE fluorescent lamp manufactured by Toshiba Electric) three times a week for 12 weeks. […] The total irradiation dose was 4.482 J/cm^2. The UV dose measured using UVRADIOMETER (UVR-305/365D (II), Topcon Corporation) was employed as a readout. During the UV-B irradiation, 10 mM D-methionine was given via a water supplier bottle. As a control, a tap water was given in the same manner. The water supplier bottle was exchanged once a week.
After the irradiation to the mice described above, the dorsal regions of the mice were photographed, and a partly modified method by Bissett et al. (Bissett D L. et al. Photochemistry and Photobiology 46:367-378, 1987.) was employed to evaluate the degree of wrinkling in accordance with the criteria indicated in Table 1 below. […]

[3] = test system: Male hairless mice (Hos: HR-1); details: Example 3, 10 mM in drinking water; for effect on UV-B-induced wrinkling (in words): P=0.55% in Mann-Whitney U test; for number of animals of each wrinkle score after the UV-B irradiation: UV(+) control: one scored 5, two 6, two 7, three 8
Source text: as §1
After the irradiation to the mice described above, the dorsal regions of the mice were photographed, and a partly modified method by Bissett et al. (Bissett D L. et al. Photochemistry and Photobiology 46:367-378, 1987.) was employed to evaluate the degree of wrinkling in accordance with the criteria indicated in Table 1 below. The wrinkle evaluation was performed separately by four observers, who thereafter consulted together to determine a score about the wrinkle grade (hereinafter, simply referred to as “score”).
During the UV-B irradiation, 10 mM L- or D-methionine was given via a water supplier bottle. The UV irradiation and the wrinkling determination were conducted by the methods described in Example 2.

[4] = test system: human neonatal dermal fibroblast (Cryo NHDF-Neo); experiment: Ultraviolet irradiation-induced damage test in cultured cell, post-irradiation addition (Alamar Blue); details: UV-A 8 J/cm^2
Procedure: The cell employed was a commercially available human neonatal dermal fibroblast (Cryo NHDF-Neo, Sanko-Junyaku Co., Ltd.). This cell was inoculated at 2×10^5 cells/mL to a commercially available culture dish of 35 mm in diameter (BD FALCON 353001, Becton Dickinson Japan), where it was cultured in a commercially available cell culture medium (D-MEM (1 g/L glucose, Wako Pure Chemical Industries, Ltd.) supplemented with 10% fetal bovine serum and 1% antibiotic (15240-062, GIBCO) (hereinafter, referred to as “ordinary medium”). This cell was cultured for about 24 hours in a 5% CO2 and saturated water vapor atmosphere at 37° C. (degrees Celsius).
Thereafter, the culture medium for culturing the cell described above was switched to 1 mL of a BSO medium supplemented with a glutathione biosynthesis inhibitor BSO (L-buthionine-(S,R)-sulfoximine, Wako Pure Chemical Industries, Ltd.) at 1×10^−3%, where the culture was conducted for about 24 hours in a 5% CO2 and saturated water vapor atmosphere at 37° C. […] The BSO medium described above was prepared by a 200-fold dilution of a stock solution containing 0.2% BSO dissolved in ethyl alcohol with the ordinary medium described above.
Ferric chloride (II) was dissolved in a distilled water at 2×10^−3%, and the resultant solution was subjected to a 200-fold dilution (final concentration: 1×10^−5%) with a phosphate buffer solution PBS (+) containing calcium ion and magnesium ion to obtain a medium (hereinafter, referred to as “UV irradiation medium”), which was warmed preliminarily to 37° C. before use.
Before UV-A irradiation, the culture medium was replaced with 1 mL of the UV irradiation medium described above. […] The UV dose was measured using UV RADIOMETER UVR-3036/S (Topcon Corporation).
After the ultraviolet irradiation, the medium was switched back to the ordinary medium described above, and the culture was conducted in a 5% CO2 and saturated water vapor atmosphere at 37° C.
Thereafter, the culture medium was supplemented with Alamar Blue (trade mark, Invitrogen) at a final concentration of 10%, and its supernatant was determined for the fluorescent intensity three hours later with an excitation wavelength of 544 nm and a fluorescent wavelength of 590 nm as described by Ahmed S. A. et al. (J. Immunol. Method. 170, 211-224 (1994)) and in accordance with the manufacture's instruction.

[5] = test system: Male hairless mice (Hos: HR-1)
Source text: as §1
After the end of the UV irradiation, the skin thickness was measured using a thickness gauge (Mitsutoyo Corporation, PK-1012SU). The measured value of the skin thickness was designated as “skin thickness×2”, since the measurement was conducted by pinching the skin with the thickness gauge.

[6] = Homo sapiens, Fibroblast, light or radiation study, read-out: percentage of the viable cell

SMILES | viability at 0.01 µM [1, 6] | viability at 0.1 µM [1, 6] | viability at 1 µM [1, 6] | viability at 10 µM [1, 6] | viability at 100 µM [1, 6] | effect of pre-irradiation addition on viable cells and cell death (in words) [1] | number of animals of each wrinkle score after the UV-B irradiation ([2]; UV-B total 4.482 J/cm^2, UV(+) control: 2 scored 4, two 5, one 6, one 7) | effect on UV-B-induced wrinkling (in words) ([2]; P=1.8% in Mann-Whitney U test) | effect on UV-B-induced wrinkling (in words) [3] | number of animals of each wrinkle score after the UV-B irradiation [3] | percentage of the viable cell (positive control) ([4]; added at 0.1 μM, called positive control, negative control 64%) | effect of post-irradiation addition on viable cells and cell death (in words) ([4]; post-irradiation addition 0.01 to 100 μM) | percentage of the viable cell ([4]; post-irradiation addition at 0.01 μM, negative control 64%) | percentage of the viable cell ([4]; post-irradiation addition at 0.1 μM, negative control 64%) | percentage of the viable cell ([4]; post-irradiation addition at 1 μM, negative control 64%) | percentage of the viable cell ([4]; post-irradiation addition at 100 μM, negative control 64%) | measured value of the skin thickness (skin thickness×2) ([5]; 10 mM in drinking water during 12 weeks UV-B, total 4.482 J/cm^2, UV(−)/H20 0.81 mm, UV(+)/H20 1.25 mm) | effect on UV-B-induced skin thickening (in words) ([5]; 10 mM in drinking water, UV-B total 4.482 J/cm^2, Bonferroni/Dunn test) | viability at 0.001 µM [1, 6]
CSCC[C@@H](N)C(=O)O [D-methionine] | 102% | 81% | 97% | 114% | 76% | an increased percentage of the viable cell and a reduced cell death | four animals scored 3, two animals scored 4 and one animal scored 5 | statistically significant reduction in this wrinkling | statistically significant reduction in this wrinkling | six animals scored 5 and two animals scored 6 | 82% | an increased percentage of the viable cell and a reduced cell death | 93% | 84% | 82% | 87% | 1.00 mm | statistically significant reduction in this skin thickening | –
CSCC[C@H](N)C(=O)O [L-methionine] | 72% | 67% | 45% | 73% | 62% | an increased percentage of the viable cell and a reduced cell death | – | – | less effective in reducing the UV-B irradiation-induced wrinkling than D-methionine | one animal scored 4, two animals scored 5, two animals scored 6 and two animals scored 7 | – | – | – | – | – | – | – | – | 40%
O=C(O)[C@H]1CCCN1 [D-proline, reference compound] | – | 100% | – | – | – | – | – | – | – | – | – | – | – | – | – | – | – | – | –
